Like-named read-outs stand apart in the source and are kept apart here.
Target: T1, recombinant human NK3 receptor (Homo sapiens, UniProt P29371)
T1 construct: expressed in transfected cells; host or cells: HEK293 cells, transient expression; membranes
T1 sequence (P29371 1-465): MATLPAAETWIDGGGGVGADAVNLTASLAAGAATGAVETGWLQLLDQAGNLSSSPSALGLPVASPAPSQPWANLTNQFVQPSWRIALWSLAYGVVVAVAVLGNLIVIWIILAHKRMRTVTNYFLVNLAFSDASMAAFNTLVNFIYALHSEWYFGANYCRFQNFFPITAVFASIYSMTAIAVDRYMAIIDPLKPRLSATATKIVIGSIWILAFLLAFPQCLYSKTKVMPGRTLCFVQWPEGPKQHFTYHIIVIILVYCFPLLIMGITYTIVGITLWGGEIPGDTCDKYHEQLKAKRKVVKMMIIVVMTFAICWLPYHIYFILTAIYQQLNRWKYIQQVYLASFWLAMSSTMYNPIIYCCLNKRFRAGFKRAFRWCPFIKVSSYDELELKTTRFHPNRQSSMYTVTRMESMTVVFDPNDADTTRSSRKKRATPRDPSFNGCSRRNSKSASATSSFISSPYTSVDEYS
Assay: [3H]SR142801 competition binding assay

| Ki (hNK-3 receptor affinity, membranes from HEK293 cells transiently expressing recombinant human NK3 receptor, [3H]SR142801, Cheng-Prussoff, read-out: Data Ki) | Compound | Ki |
| --- | --- | --- |
|  | COCC(=O)N1CCC(C(=O)N2C[C@@H](N(C)C(=O)Oc3ccc(F)cc3)[C@H](c3ccc(Cl)cc3)C2)C1 (stereo partly drawn) [Example 172, {(3S,4R)-4-(4-Chloro-phenyl)-1-[1-(2-methoxy-acetyl)-pyrrolidine-3-carbonyl]-pyrrolidin-3-yl}-methyl-carbamic acid 4-fluoro-phenyl ester] | 4.1 nM |
| 47 nM | CN(C(=O)OC1CCC1)[C@@H]1CN(C(=O)C2CCN(c3ccc(C#N)cn3)CC2)C[C@H]1c1ccc(Cl)cc1 [Example 173, [(3S,4R)-4-(4-Chloro-phenyl)-1-(5′-cyano-3,4,5,6-tetrahydro-2H-[1,2′]bipyridinyl-4-carbonyl)-pyrrolidin-3-yl]-methyl-carbamic acid cyclobutyl ester] |  |
|  | CN(C(=O)OC1CC(F)(F)C1(F)F)[C@@H]1CN(C(=O)C2CCN(C(=O)C3(C)CC3)CC2)C[C@H]1c1ccc(Cl)cc1 (stereo partly drawn) [Example 175, {(3S,4R)-4-(4-Chloro-phenyl)-1-[1-(1-methyl-cyclopropanecarbonyl)-piperidine-4-carbonyl]-pyrrolidin-3-yl}-methyl-carbamic acid 2,2,3,3-tetrafluorocyclobutyl ester] | 36 nM |
|  | CN(C(=O)OC1CC(F)(F)C1(F)F)[C@@H]1CN(C(=O)C2CCN(c3ccc(C#N)cn3)CC2)C[C@H]1c1ccc(Cl)cc1 (stereo partly drawn) [Example 176, [(3S,4R)-4-(4-Chloro-phenyl)-1-(5′-cyano-3,4,5,6-tetrahydro-2H-[1,2′]bipyridinyl-4-carbonyl)-pyrrolidin-3-yl]-methyl-carbamic acid 2,2,3,3-tetrafluorocyclobutyl ester] | 4.6 nM |
|  | CC(CC(F)(F)F)OC(=O)N(C)[C@@H]1CN(C(=O)C2CCN(c3ccc(C#N)cn3)CC2)C[C@H]1c1ccc(Cl)cc1 (stereo partly drawn) [Example 177, [(3S,4R)-4-(4-Chloro-phenyl)-1-(5′-cyano-3,4,5,6-tetrahydro-2H-[1,2′]bipyridinyl-4-carbonyl)-pyrrolidin-3-yl]-methyl-carbamic acid 3,3,3-trifluoro-1-methyl-propyl ester] | 18.9 nM |
|  | CN(C(=O)Oc1ccc(F)cc1)[C@@H]1CN(C(=O)C2CCN(C3CCOCC3)C2)C[C@H]1c1ccc(Cl)cc1 (stereo partly drawn) [Example 179, {(3S,4R)-4-(4-Chloro-phenyl)-1-[1-(tetrahydro-pyran-4-yl)-pyrrolidine-3-carbonyl]-pyrrolidin-3-yl}-methyl-carbamic acid 4-fluoro-phenyl ester] | 56.6 nM |
|  | CN(C(=O)Oc1ccc(F)cc1)[C@@H]1CN(C(=O)C2CCN(c3ccc(S(C)(=O)=O)cn3)CC2)C[C@H]1c1ccc(Cl)cc1 [Example 180, [(3S,4R)-4-(4-Chloro-phenyl)-1-(5′-methanesulfonyl-3,4,5,6-tetrahydro-2H-[1,2′]bipyridinyl-4-carbonyl)-pyrrolidin-3-yl]-methyl-carbamic acid 4-fluoro-phenyl ester] | 0.7 nM |
|  | CN(C(=O)Oc1ccc(F)cc1)[C@@H]1CN(C(=O)C2CCN(c3ccc(C(F)(F)F)cn3)CC2)C[C@H]1c1ccc(Cl)cc1 [Example 181, [(3S,4R)-4-(4-Chloro-phenyl)-1-(5′-trifluoromethyl-3,4,5,6-tetrahydro-2H-[1,2′]bipyridinyl-4-carbonyl)-pyrrolidin-3-yl]-methyl-carbamic acid 4-fluoro-phenyl ester] | 2.8 nM |
|  | CC(=O)c1ccc(N2CCC(C(=O)N3C[C@@H](N(C)C(=O)Oc4ccc(F)cc4)[C@H](c4ccc(Cl)cc4)C3)CC2)nc1 [Example 182, [(3S,4R)-1-(5′-Acetyl-3,4,5,6-tetrahydro-2H-[1,2′]bipyridinyl-4-carbonyl)-4-(4-chloro-phenyl)-pyrrolidin-3-yl]-methyl-carbamic acid 4-fluoro-phenyl ester] | 2 nM |
|  | CN(C(=O)Oc1ccc(F)cc1)[C@@H]1CN(C(=O)C2CCN(c3ncccn3)CC2)C[C@H]1c1ccc(Cl)cc1 [Example 183, [(3S,4R)-4-(4-Chloro-phenyl)-1-(1-pyrimidin-2-yl-piperidine-4-carbonyl)-pyrrolidin-3-yl]-methyl-carbamic acid 4-fluoro-phenyl ester] | 16 nM |
|  | CN(C(=O)Oc1ccc(F)cc1)[C@@H]1CN(C(=O)C2CCN(c3ncc(Cl)cn3)CC2)C[C@H]1c1ccc(Cl)cc1 [Example 184, {(3S,4R)-4-(4-Chloro-phenyl)-1-[1-(5-chloro-pyrimidin-2-yl)-piperidine-4-carbonyl]-pyrrolidin-3-yl}-methyl-carbamic acid 4-fluoro-phenyl ester] | 6.7 nM |
|  | CN(C(=O)Oc1ccc(F)cc1)[C@@H]1CN(C(=O)C2CCN(c3cc(C#N)ccn3)CC2)C[C@H]1c1ccc(Cl)cc1 [Example 185, [(3S,4R)-4-(4-Chloro-phenyl)-1-(4′-cyano-3,4,5,6-tetrahydro-2H-[1,2′]bipyridinyl-4-carbonyl)-pyrrolidin-3-yl]-methyl-carbamic acid 4-fluoro-phenyl ester] | 3 nM |
|  | CN(C(=O)Oc1ccc(F)cc1)[C@@H]1CN(C(=O)C2CCN(c3ncccc3C#N)CC2)C[C@H]1c1ccc(Cl)cc1 [Example 186, [(3S,4R)-4-(4-Chloro-phenyl)-1-(3′-cyano-3,4,5,6-tetrahydro-2H-[1,2′]bipyridinyl-4-carbonyl)-pyrrolidin-3-yl]-methyl-carbamic acid 4-fluoro-phenyl ester] | 6 nM |
|  | CN(C(=O)Oc1ccc(F)cc1)[C@@H]1CN(C(=O)C2CCN(c3cncc(C#N)n3)CC2)C[C@H]1c1ccc(Cl)cc1 [Example 187, {(3S,4R)-4-(4-Chloro-phenyl)-1-[1-(6-cyano-pyrazin-2-yl)-piperidine-4-carbonyl]-pyrrolidin-3-yl}-methyl-carbamic acid 4-fluoro-phenyl ester] | 2.6 nM |
|  | CN(C(=O)Oc1ccc(F)cc1)[C@@H]1CN(C(=O)C2CCN(c3ncc(C(F)(F)F)cc3Cl)CC2)C[C@H]1c1ccc(Cl)cc1 [Example 188, [(3S,4R)-4-(4-Chloro-phenyl)-1-(3′-chloro-5′-trifluoromethyl-3,4,5,6-tetrahydro-2H-[1,2]bipyridinyl-4-carbonyl)-pyrrolidin-3-yl]-methyl-carbamic acid 4-fluoro-phenyl ester] | 14.6 nM |
|  | CN(C(=O)Oc1ccc(F)cc1)[C@@H]1CN(C(=O)C2CCN(c3cccc(C#N)n3)CC2)C[C@H]1c1ccc(Cl)cc1 [Example 189, [(3S,4R)-4-(4-Chloro-phenyl)-1-(6′-cyano-3,4,5,6-tetrahydro-2H-[1,2′]bipyridinyl-4-carbonyl)-pyrrolidin-3-yl]-methyl-carbamic acid 4-fluoro-phenyl ester] | 3.5 nM |
|  | COc1cnc(N2CCC(C(=O)N3C[C@@H](N(C)C(=O)Oc4ccc(F)cc4)[C@H](c4ccc(Cl)cc4)C3)CC2)nc1 [Example 190, {(3S,4R)-4-(4-Chloro-phenyl)-1-[1-(5-methoxy-pyrimidin-2-yl)-piperidine-4-carbonyl]-pyrrolidin-3-yl}-methyl-carbamic acid 4-fluoro-phenyl ester] | 17.2 nM |
|  | CN(C(=O)Oc1ccc(F)cc1)[C@@H]1CN(C(=O)C2CCN(c3ccncn3)CC2)C[C@H]1c1ccc(Cl)cc1 [Example 191, [(3S,4R)-4-(4-Chloro-phenyl)-1-(1-pyrimidin-4-yl-piperidine-4-carbonyl)-pyrrolidin-3-yl]-methyl-carbamic acid 4-fluoro-phenyl ester] | 1.2 nM |
|  | CN(C(=O)Oc1ccc(F)cc1)[C@@H]1CN(C(=O)C2CCN(c3ncc(C#N)cn3)CC2)C[C@H]1c1ccc(Cl)cc1 [Example 192, {(3S,4R)-4-(4-Chloro-phenyl)-1-[1-(5-cyano-pyrimidin-2-yl)-piperidine-4-carbonyl]-pyrrolidin-3-yl}-methyl-carbamic acid 4-fluoro-phenyl ester] | 3.6 nM |
|  | CN(C(=O)Oc1ccc(F)cc1)[C@@H]1CN(C(=O)C2CCN(c3cnc(C#N)cn3)CC2)C[C@H]1c1ccc(Cl)cc1 [Example 193, {(3S,4R)-4-(4-Chloro-phenyl)-1-[1-(5-cyano-pyrazin-2-yl)-piperidine-4-carbonyl]-pyrrolidin-3-yl}-methyl-carbamic acid 4-fluoro-phenyl ester] | 1.1 nM |
|  | Cc1ccc(N2CCC(C(=O)N3C[C@@H](N(C)C(=O)Oc4ccc(F)cc4)[C@H](c4ccc(Cl)cc4)C3)CC2)nc1 [Example 194, [(3S,4R)-4-(4-Chloro-phenyl)-1-(5′-methyl-3,4,5,6-tetrahydro-2H-[1,2′]bipyridinyl-4-carbonyl)-pyrrolidin-3-yl]-methyl-carbamic acid 4-fluoro-phenyl ester] | 3.5 nM |
|  | CN(C(=O)Oc1ccc(F)cc1)[C@@H]1CN(C(=O)C2CCN(c3ccc(F)cn3)CC2)C[C@H]1c1ccc(Cl)cc1 [Example 195, [(3S,4R)-4-(4-Chloro-phenyl)-1-(5′-fluoro-3,4,5,6-tetrahydro-2H-[1,2′]bipyridinyl-4-carbonyl)-pyrrolidin-3-yl]-methyl-carbamic acid 4-fluoro-phenyl ester] | 1.4 nM |
|  | CN(C(=O)Oc1ccc(F)cc1)[C@@H]1CN(C(=O)C2CCN(c3ccc(C(N)=O)cn3)CC2)C[C@H]1c1ccc(Cl)cc1 [Example 196, [(3S,4R)-1-(5′-Carbamoyl-3,4,5,6-tetrahydro-2H-[1,2′]bipyridinyl-4-carbonyl)-4-(4-chloro-phenyl)-pyrrolidin-3-yl]-methyl-carbamic acid 4-fluoro-phenyl ester] | 2.2 nM |
|  | COc1ccc(N2CCC(C(=O)N3C[C@@H](N(C)C(=O)Oc4ccc(F)cc4)[C@H](c4ccc(Cl)cc4)C3)CC2)nn1 [Example 197, {(3S,4R)-4-(4-Chloro-phenyl)-1-[1-(6-methoxy-pyridazin-3-yl)-piperidine-4-carbonyl]-pyrrolidin-3-yl}-methyl-carbamic acid 4-fluoro-phenyl ester] | 2.6 nM |
